Assays:
anesthetized rats = assay: Anesthetized rat spirometry screening assay (respiratory rate, tidal volume, minute volume; IV bolus); assay type: in vivo; settings: 0.3 mg/kg IV bolus
Excerpt: Anesthetized rats provide a quick method of screening compounds for respiratory and cardiovascular activity. In contrast to the conscious rat model, this model offers an experimental set up with less variation in the baseline cardiovascular and respiratory measures. Compounds screened in this assay may be examined in a conscious rat model.
Rats were initially anesthetized with 3% isoflurane (inhaled) and femoral artery and vein cannulas were surgically inserted. Once cannulated, the rats were transitioned to urethane anesthesia (1.5 g/kg; i.v.) and a tracheal cut-down was performed. After placing the tracheal cannula, it was connected to a pneumotach to record respiratory airflow from which respiratory rate (RR), tidal volume (VT), and their product minute volume were derived. After the surgical preparation was complete, animals were allowed to stabilize for 30 minutes while respiratory rate, tidal volume, minute volume, blood pressure and heart rate were recorded continuously. Arterial blood gases (ABG) were obtained from arterial blood collected from the femoral artery. ABG measurements were taken before and 6 minutes after vehicle and each dose of compound administered. Compounds being screened were administered via bolus injections through the venous cannula followed by a saline flush (total time of administration is approximately 30 seconds), and the animal was monitored for at least 6 minutes for changes in cardiovascular efforts. Compounds were prepared in formulations identified to ensure optimal solubility. As such, vehicle controls were matched for the formulation of each compound tested. Dosing of the compound being screened was 0.1 and 0.3 mg/kg. The next dose was not administered until all cardiovascular and respiratory measures had returned to baseline levels. The positive control compounds used were N-[4,6-di-(n-propylamino)-[1,3,5]triazin-2-yl]-O,N-dimethyl-hydroxylamine or N-[2,6-di-(n-propylamino)-[1,3]pyrimidin-4-yl]-O,N-dimethyl-hydroxylamine, both administered at the end of each screening experiment (0.3 mg/kg dose) to validate the experiment and also to serve as a measure with which the compound being screened could be compared.
Data were analyzed by collecting cardiovascular and respiratory data in 30 second averages (BINs). Data were plotted 2 minutes before challenge and then 6 minutes after challenge.
FIGS. 2A-2F summarize the effects of individual compounds on peak minute ventilation (increase in VE), overall increase in 2 minute area under the curve (AUC) which is a cumulative measure of effect, along with compound stability (half-life) in rat and human microsomes.

[1] = Pharmacokinetics and oral bioavailability in the rat (IV and PO dosing, plasma LC-MS/MS); assay type: in vivo, Sprague-Dawley rats; settings: Sprague-Dawley, oral versus intravenous dosing
Experimental: Sprague-Dawley rats (200-300 g) were fed a standard laboratory rodent diet and housed in individual cages on a 12-hour light and 12-hour dark cycle with room temperature maintained at 22±3° C. and relative humidity at 50±20%. Rats were fasted overnight before dosing, with food returned after the 6 hour blood samples were obtained. Bedding was removed until after the 6 hour blood samples were obtained. Water was provided ad libitum throughout the study.
Dosing solution of test compound was prepared in desired oral formulation for oral administration via gavage needle at 10-30 mg/kg (10 mL/kg) to three or four rats. All blood samples (250 uL per sample) were taken via jugular vein or femoral vein at 0 (predose), 15, and 30 min and 1, 2,4, 6, 8, and 24 h after oral dosing. […]
Plasma samples (incurred study samples, calibration standards, quality controls) were normally prepared as follows. […] Calibration standards were typically prepared in the range of 2 ng/ml to 10 μg/mL for quantitation. […]
All pharmacokinetic parameters were determined based on a non-compartmental approach using WinNonlin software (Pharsight, Version 5.1). The terminal elimination half-life (t1/2) was calculated as ln2/λz using the slope (λz) from linear regression analysis of the terminal phase of the plasma concentration-time curve on a semi-log scale. […]

In the case of `C#CCNc1nc(NCCC)nc(N(C)OC)n1.Cl` [Compound 5a, O,N-Dimethyl-N-[4-(n-propylamino)-6-(prop-2-ynylamino)-[1,3,5]triazin-2-yl]-hydroxylamine hydrochloride], the “duration of the increase in minute ventilation” value (anesthetized rats) is reported as “approximately 2 minutes”, the “increase in minute ventilation above baseline values” (anesthetized rats) is reported as “up to 143%” and the “increase in respiratory rate” value (anesthetized rats) is reported as “up to 42%”. The “increase in tidal volume” value (anesthetized rats) was “up to 73%” and the bioavailability [1] was 36%.

Reference: US20150291597A1, “NOVEL ORALLY BIOAVAILABLE BREATHING CONTROL MODULATING COMPOUNDS, AND METHODS OF USING SAME” (Galleon Pharmaceuticals, Inc., priority 2012, published 2015)
